Assay results: ChEMBL document CHEMBL2086226, “Synthesis of paclitaxel-BGL conjugates” (Bioorg Med Chem, 2012)
Active and inactive are the calls of the source. The calls are words filed in the database; no cut-off is given here.

Legend:
[1] = tested on: A549; assay: Antitumor activity against human A549 cells xenografted in nude BALB/c mouse assessed as tumor growth inhibition at 3.51 umol/kg, ip administered on day 1, 4 and 7 post-inoculation measured up to 14 days; assay type: functional, organism-based
[2] = Octanol-water partition coefficient, log P of the compound; assay type: physicochemical

Compound | growth inhibition (GI) [1] | logP [2]
CC(=O)O[C@H]1C(=O)[C@@]2(C)[C@H]([C@H](OC(=O)c3ccccc3)[C@]3(O)C[C@H](OC(=O)[C@H](O)[C@@H](NC(=O)CCC(=O)OC(COC(CO)CO)COC(CO)CO)c4ccccc4)C(C)=C1C3(C)C)[C@]1(OC(C)=O)CO[C@@H]1C[C@@H]2O | Active | 1.46
CC(=O)O[C@H]1C(=O)[C@@]2(C)[C@H]([C@H](OC(=O)c3ccccc3)[C@]3(O)C[C@H](OC(=O)[C@H](OC(=O)CCC(=O)OC(COC(CO)CO)COC(CO)CO)[C@@H](NC(=O)c4ccccc4)c4ccccc4)C(C)=C1C3(C)C)[C@]1(OC(C)=O)CO[C@@H]1C[C@@H]2O | – | 2.26
CC(=O)O[C@H]1C(=O)[C@]2(C)[C@@H](OC(=O)CCC(=O)OC(COC(CO)CO)COC(CO)CO)C[C@H]3OC[C@@]3(OC(C)=O)[C@H]2[C@H](OC(=O)c2ccccc2)[C@]2(O)C[C@H](OC(=O)[C@H](O)[C@@H](NC(=O)c3ccccc3)c3ccccc3)C(C)=C1C2(C)C | – | 1.99
CC(=O)O[C@H]1C(=O)[C@@]2(C)[C@H]([C@H](OC(=O)c3ccccc3)[C@]3(O)C[C@H](OC(=O)[C@H](O)[C@@H](NC(=O)c4ccccc4)c4ccccc4)C(C)=C1C3(C)C)[C@]1(OC(C)=O)CO[C@@H]1C[C@@H]2O [PACLITAXEL] | Active | 2.25
